Like-named read-outs stand apart in the source and are kept apart here.
Experiments:
Bcl-2 = Bcl-2 (Homo sapiens, UniProt P10415); assay: Bcl-2 binding affinity analysis (fluorescence polarization binding assay)
Summary of the method: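 Binding to human Bcl-2 quantified in vitro by a fluorescence polarization assay.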

Bcl-xL = Bcl-xL (Homo sapiens, UniProt Q07817); assay: Bcl-xL binding affinity analysis (fluorescence polarization binding assay); design: scale not given here
Summary of the method: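 In vitro fluorescence polarization binding assay measuring compound binding to human Bcl-xL.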

[1] = system: Human Pancreatic Cancer Cell Line Panc1; assay: Cell death assay (propidium iodide/Hoechst) in Panc1 cells with or without camptothecin; type: cell-based; conditions: 72 hours, % cell death by propidium iodide/Hoechst
Protocol: When RL-cells are exposed to isoxazolidine compounds of the present invention, the inhibitors show a dose-dependent cell-killing in the Alamar blue cytoxicity assay with IC50 values of from about 100 μM to about 1 μM (See Examples). When Panc1 cells are exposed to the isoxazolidine compounds of the present invention in combination with camptothecin, the inhibitors show a synergistic dose-dependent cell killing in the propidium iodide exclusion cell survival assay with IC50 values of from about 100 μM to about 1 μM (See Examples).
• 1) Compounds were serially diluted in DMSO from a 9 mM stock to a final concentration of 0.004 mM in a 96 well plate. • 2) Assay plates were prepared by diluting compounds 310 fold into 150 ul of medium containing 10,000 cells/well, with or without 3 uM Camptothecin, resulting in a final DMSO concentration of 0.3% and a compound concentration range from 29 uM to […] for each compound. • 3) Assay plates were incubated at 37 C, 5% CO2 for 72 hours. • 4) After 72 hours, propidium iodide and Hoechst dye were added to each well according to manufacturer's instruction. • 5) Plates were imaged on a fluorescence microscope at wavelengths Ex560/Em650 (Propidium iodide) and Ex360/Em465 (Hoechst) • 6) MetaMorph imaging software was used to determine % cell death by dividing the number of propidium iodide stained cells (dead cells) by the number of Hoechst stained cells (all cells), multipled by 100, in each field.
Panc1 invitro cellular data is presented below for various compounds of the invention.

[2] = without camptothecin, read-out: Panc1 − Cpt IC50
[3] = Homo sapiens, PANC-1, without camptothecin, read-out: Panc1 − Cpt IC50
[4] = with 3 uM Camptothecin, read-out: Panc1 + Cpt IC50

Bcl-xL, sequence (Q07817 whole entry): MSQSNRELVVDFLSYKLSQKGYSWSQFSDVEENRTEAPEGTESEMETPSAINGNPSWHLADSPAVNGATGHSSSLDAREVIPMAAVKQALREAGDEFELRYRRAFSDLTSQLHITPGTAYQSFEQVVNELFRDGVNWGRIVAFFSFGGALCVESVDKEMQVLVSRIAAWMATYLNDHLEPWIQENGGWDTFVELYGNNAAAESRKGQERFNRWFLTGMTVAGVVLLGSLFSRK
Bcl-2, sequence (P10415 whole entry): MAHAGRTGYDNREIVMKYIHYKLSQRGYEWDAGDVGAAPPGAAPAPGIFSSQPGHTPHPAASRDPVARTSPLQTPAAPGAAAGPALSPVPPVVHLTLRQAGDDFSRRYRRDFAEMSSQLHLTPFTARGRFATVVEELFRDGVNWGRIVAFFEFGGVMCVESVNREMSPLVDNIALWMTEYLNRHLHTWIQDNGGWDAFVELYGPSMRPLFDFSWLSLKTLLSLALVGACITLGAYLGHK

Compound	Ki (Bcl-2) [nM]	Bcl-XL binding affinity Ki (Bcl-xL)	IC50 [1, 2] [nM]	IC50 [1, 3] [nM]	IC50 [1, 4] [nM]
CC(O)C1C(CO)ON(Cc2cccc(CNC(CC3CCCCC3)CN(C)C)c2)C1C(=O)NC1CC2CC(C1C)C2(C)C (stereo not drawn) [Compound 451]	< 800	♯	> 2500		
CCOc1c(CN2O[C@@H](CO)[C@@H]([C@H](C)O)[C@H]2C(=O)N[C@H]2C[C@H]3C[C@@H]([C@@H]2C)C3(C)C)cccc1-c1cccc(C(=O)N[C@H](CC(C)C)CN(C)C)c1 [Compound 494]	< 800	♯		> 2500	> 2500
CC(C)CC(CN(C)C)N(Cc1cccc(O)c1)Cc1cccc(CN2OC(CO)C(C(C)O)C2C(=O)NC2CC3CC(C2C)C3(C)C)c1 (stereo not drawn) [Compound 310]	< 800	♯		> 2500	1800 to 2500
CC(O)C1C(CO)ON(Cc2cccc(C(=O)NC(Cc3ccccc3)CN(C)C)c2)C1C(=O)NC1CC2CC(C1C)C2(C)C (stereo not drawn) [Compound 508]	< 800	♯		> 2500	> 2500
C[C@@H]1[C@@H](NC(=O)[C@@H]2[C@H]([C@H](C)O)[C@H](CO)ON2Cc2cccc(N(CCc3ccccc3)CCN(C)C)c2)C[C@H]2C[C@@H]1C2(C)C [Compound 578]	< 800	♯		> 2500	1800 to 2500
COc1ccc(CN(CCN(C)C)Cc2cccc(CN3OC(CO)C(C(C)O)C3C(=O)NC3CC4CC(C3C)C4(C)C)c2)cc1 (stereo not drawn) [Compound 387]	< 800	♯		> 2500	> 2500
CC(O)C1C(CO)ON(Cc2cccc(CN(CCN(C)C)Cc3cccs3)c2)C1C(=O)NC1CC2CC(C1C)C2(C)C (stereo not drawn) [Compound 358]	< 800	♯		> 2500	> 2500
CC(O)C1C(CO)ON(Cc2cccc(CN(CCN3CCCC3)Cc3ccccc3)c2)C1C(=O)NC1CC2CC(C1C)C2(C)C (stereo not drawn) [Compound 430]	< 800	♯		> 2500	> 2500
CC(O)C1C(CO)ON(Cc2cccc(CNC(Cc3ccccc3)CN(C)C)c2)C1C(=O)NC1CC2CC(C1C)C2(C)C (stereo not drawn) [Compound 454]	< 800	♯		> 2500	> 2500
C[C@@H]1[C@@H](NC(=O)[C@@H]2C([C@H](C)O)[C@H](CO)ON2Cc2cccc(CN(CCN(C)C)Cc3ccncc3)c2)C[C@H]2C[C@@H]1C2(C)C (stereo partly drawn) [Compound 389]	< 800	♯		1800 to 2500	1300 to 1800
COc1cccc(CN(Cc2cccc(CN3OC(CO)C(C(C)O)C3C(=O)NC3CC4CC(C3C)C4(C)C)c2)C(CC(C)C)CN(C)C)c1 (stereo not drawn) [Compound 319]	< 800	♯		1800 to 2500	1300 to 1800
CC(O)C1C(CO)ON(Cc2cccc(CN(C)C(Cc3ccccc3)CN(C)C)c2)C1C(=O)NC1CC2CC(C1C)C2(C)C (stereo not drawn) [Compound 464]	< 800	♯		> 2500	> 2500
CC(C)C(CN(C)C)NCc1cccc(CN2OC(CO)C(C(C)O)C2C(=O)NC2CC3CC(C2C)C3(C)C)c1 (stereo not drawn) [Compound 463]	< 800	♯	> 2500		
CCOc1c(CN2O[C@@H](CO)[C@@H]([C@H](C)O)[C@H]2C(=O)N[C@H]2C[C@H]3C[C@@H]([C@@H]2C)C3(C)C)cccc1-c1cccc(C(=O)NCCN(C)C)c1 [Compound 495]	< 800	♯		> 2500	> 2500
CNC(=O)c1ccccc1-c1cccc(CN2O[C@@H](CO)[C@@H]([C@H](C)O)[C@H]2C(=O)N[C@H]2C[C@H]3C[C@@H]([C@@H]2C)C3(C)C)c1 [Compound 89]				1800 to 2500	1300 to 1800
CC(C)C(CN(C)C)NCc1cccc(CN2OC(CO)C(C(C)O)C2C(=O)NC2CC3CC(C2C)C3(C)C)c1 (stereo not drawn) [Compound 462]	< 800	♯		> 2500	> 2500
C[C@@H]1[C@@H](NC(=O)[C@@H]2[C@H]([C@H](C)O)[C@H](CO)ON2Cc2cccc(C#CC3(NC(=O)C4CCN(C)CC4)CCCCC3)c2)CC2C[C@@H]1C2(C)C [Compound 90]				> 2500	1300 to 1800
CC(O)C1C(CO)ON(Cc2cccc(CN(CCN3CCCCC3)Cc3ccccc3)c2)C1C(=O)NC1CC2CC(C1C)C2(C)C (stereo not drawn) [Compound 433]	< 800	♯		> 2500	> 2500

Compound	Ki (Bcl-2) [nM]	Bcl-XL binding affinity Ki (Bcl-xL)	IC50 [1, 2] [nM]	IC50 [1, 3] [nM]	IC50 [1, 4] [nM]
C[C@@H]1[C@@H](NC(=O)[C@@H]2[C@H]([C@H](C)O)[C@H](CO)ON2Cc2cccc(-c3cccc(C(=O)NCCN(C)C)c3)c2OCC2CC2)C[C@H]2C[C@@H]1C2(C)C [Compound 497]	< 800	♯		> 2500	> 2500
CC(O)C1C(CO)ON(Cc2cccc(CN(CCN(C)C)Cc3ccc(F)cc3)c2)C1C(=O)NC1CC2CC(C1C)C2(C)C (stereo not drawn) [Compound 376]	< 800	♯		1800 to 2500	1300 to 1800
CC(O)C1C(CO)ON(Cc2cccc(CN(CCN(C)C)Cc3ccsc3)c2)C1C(=O)NC1CC2CC(C1C)C2(C)C (stereo not drawn) [Compound 347]	< 800	♯		> 2500	> 2500
C[C@@H]1[C@@H](NC(=O)[C@@H]2C([C@H](C)O)[C@H](CO)ON2Cc2cccc(CN(CCN(C)C)CC3CC4C=CC3C4)c2)C[C@H]2C[C@@H]1C2(C)C (stereo partly drawn) [Compound 401]	< 800	♯			
CC(C)CC(CN(C)C)N(Cc1cccc(CN2OC(CO)C(C(C)O)C2C(=O)NC2CC3CC(C2C)C3(C)C)c1)Cc1ccccc1N1CCN(C)CC1 (stereo not drawn) [Compound 315]	< 800	♯			
C[C@@H](O)[C@H]1[C@@H](CO)ON(Cc2cccc(C#CC(O)c3ccc(-n4ccnc4)cc3)c2)[C@H]1C(=O)NCCCN(C)c1ccccc1 (stereo partly drawn) [Compound 42]	800 to 6000	♯♯			
CC(C)CC(CN(C)C)N(Cc1cccc(CN2OC(CO)C(C(C)O)C2C(=O)NC2CC3CC(C2C)C3(C)C)c1)CC1CCCC1 (stereo not drawn) [Compound 308]	< 800	♯			
C[C@@H]1[C@@H](NC(=O)[C@@H]2[C@H]([C@H](C)O)[C@H](CO)ON2Cc2cccc(-c3ccc(NS(C)(=O)=O)cc3)c2)C[C@H]2C[C@@H]1C2(C)C [Compound 298]	< 800	♯♯			
C[C@@H]1[C@@H](NC(=O)[C@@H]2[C@H]([C@H](C)O)[C@H](CO)ON2Cc2cccc(CN(CCN(C)C)C3CCCCC3)c2)C[C@H]2C[C@@H]1C2(C)C [Compound 211]	< 800	♯			
C[C@@H](O)[C@H]1[C@@H](CO)ON(Cc2cccc(C#CCNC(=O)c3ccccc3)c2)[C@H]1C(=O)NCc1ccc(Oc2ccccc2)cc1 [Compound 63]	800 to 6000	♯			
CC(C)CC(CN(C)C)N(Cc1cccc(CN2OC(CO)C(C(C)O)C2C(=O)NC2CC3CC(C2C)C3(C)C)c1)Cc1ccccc1N1CCOCC1 (stereo not drawn) [Compound 331]	< 800	♯			
COc1c(CN(CCN(C)C)Cc2ccccc2)cccc1CN1O[C@@H](CO)[C@@H]([C@H](C)O)[C@H]1C(=O)NC1C[C@H]2C[C@@H]([C@@H]1C)C2(C)C (stereo partly drawn) [Compound 197]	< 800	♯			
COC(=O)[C@@H](NC(=O)[C@@H]1[C@H]([C@H](C)O)[C@H](CO)ON1Cc1cccc(C#CC2(N)CCCCC2)c1)C(C)C [Compound 47]	> 50000	♯♯			
CC(CN(C)C)NC(=O)c1cccc(-c2cccc(CN3O[C@@H](CO)[C@@H]([C@H](C)O)[C@H]3C(=O)N[C@H]3C[C@H]4C[C@@H]([C@@H]3C)C4(C)C)c2)c1 (stereo partly drawn) [Compound 110]	< 800	♯			
CNCC#Cc1cccc(CN2O[C@@H](CO)[C@@H]([C@H](C)O)[C@H]2C(=O)N[C@H]2C[C@H]3CC([C@@H]2C)C3(C)C)c1 [Compound 50]	800 to 6000	♯			
CC(C)=CCC/C(C)=C/CNC(=O)[C@H]1[C@@H]([C@@H](C)O)[C@@H](CO)ON1Cc1cccc(C#CC(C)(O)c2ccccc2)c1 (stereo partly drawn) [Compound 45]	6000 to 50000	♯			
COCCOc1cccc(CN(CCN(C)C)Cc2cccc(CN3OC(CO)C(C(C)O)C3C(=O)NC3CC4CC(C3C)C4(C)C)c2)c1 (stereo not drawn) [Compound 406]	< 800	♯			
CCN(CC)C(=O)c1ccc(-c2cccc(CN3O[C@@H](CO)[C@@H]([C@H](C)O)[C@H]3C(=O)N[C@H]3C[C@H]4C[C@@H]([C@@H]3C)C4(C)C)c2)cc1 [Compound 108]	< 800	♯			
